From patent publication US12479866B2, “Boron-containing rho kinase inhibitors” (Percipiad, Inc., priority 2019, dated 2025)

How the values were obtained:
CAMK4 = CAMK4 (Homo sapiens (Human), UniProt Q16566); experiment: Kinase Selectivity Profiling General Panel (ADP-Glo); format: biochemical; details: 1 μM compound, read-out: Percent enzyme activity inhibition, CAMK4
Description: (§1) After this incubation, 5 μl of ADP-Glo™ reagent was added to 5 μl reaction and incubated for 40 minutes. Then, 10 μl of Kinase Detection Reagent added to all assay wells in the assay plate and incubated at room temperature for 30 minutes. […]

MAPKAPK2 = MAPKAPK2 (Homo sapiens (Human), UniProt P49137); experiment: as above; format: biochemical; details: 1 μM compound, read-out: Percent enzyme activity inhibition, MAPKAPK2
Description: as §1

PKCa = PKCa (Homo sapiens (Human), UniProt P17252); experiment: as above; format: biochemical; details: 1 μM compound, read-out: Percent enzyme activity inhibition, PKCa
Description: as §1

DAPK1 = DAPK1 (Homo sapiens (Human), UniProt P53355); experiment: as above; format: biochemical; details: 1 μM compound, read-out: Percent enzyme activity inhibition, DAPK1
Description: as §1

PAK1/CDC42 = PAK1/CDC42 (Homo sapiens (Human), UniProt Q13153); experiment: as above; format: biochemical; details: 1 μM compound, read-out: Percent enzyme activity inhibition, PAK1/CDC42
Description: as §1

IRAK4 = IRAK4 (Homo sapiens (Human), UniProt Q9NWZ3); experiment: as above; format: biochemical; details: 1 μM compound, read-out: Percent enzyme activity inhibition, IRAK4
Description: as §1

primary hTM cells = experiment: RealTime-Glo MT cell viability assay in hTM cells; format: cell-based; details: all concentrations and time points (24 h, 48 h, 72 h)
Excerpt: Commercially available RealTime-Glo™ MT cell viability (Promega, catalog #G9712) and CellTox™ Green cytotoxicity (Promega, catalog #G8731) assays were used in assessing effect of compounds on primary hTM cell viability and cytotoxicity. The RealTime-Glo™ MT cell viability assay is a nonlytic, homogeneous, bioluminescent method that determines the number of viable cells in culture by measuring the reducing potential of cells and thus metabolism (MT). Viable cells reduce the proprietary pro-substrate to generate a substrate for NanoLuc® luciferase. This substrate diffuses from cells into the surrounding culture medium, where it is rapidly used by the NanoLuc® Enzyme to produce a luminescent signal. In a contrasting and complementary manner, CellTox™ Green cytotoxicity assay measures changes in membrane integrity that occur as a result of cell death. This assay system uses a proprietary asymmetric cyanine dye that is excluded from viable cells but preferentially stains the dead cells' DNA. The fluorescent signal produced by the dye binding to the dead-cell DNA is proportional to cytotoxicity.
Human™ cells were cultured and maintained as described in Example 12. Fifty μl cells (600 cells) in culture media containing compound, 25 μl media with RealTime-Glo™ MT cell viability assay reagent and 25 μl media with CellTox™ Green cytotoxicity assay reagent were plated in black, clear bottom 96-well plates. Light emitted by luciferase and fluorescence emitted by dye binding to DNA (excitation 485 nm and emission 525 nm) were measured at 24 h, 48 h, and 72 h after incubation using plate based luminescence and fluorescence plate readers.

[1] = Stability in liver microsomes (LC-MS/MS); format: in vitro ADME; details: Human liver microsomes; for % Remaining of Initial (n = 1): 1 μM
Description: Stability in liver microsomes. Experiment was conducted by Absorption Systems. Mixed-gender human liver microsomes (Lot #1210347) were purchased from XenoTech. The reaction mixture, minus NADPH, was prepared (Liver Microsomes 0.5 mg/mL, NADPH (cofactor) 1 mM, potassium phosphate, pH 7.4, 100 mM, MgCl2, 5 mM). The test article was added into the reaction mixture at a final concentration of 1 μM. The control compound, testosterone, was run simultaneously with the test article in a separate reaction. The reaction mixture (without cofactor) was equilibrated in a shaking water bath at 37° C. for 3 minutes. The reaction was initiated by the addition of the cofactor, and the mixture was incubated in a shaking water bath at 37° C. Aliquots (100 μL) were withdrawn at 0, 10, 20, 30, and 60 minutes. Test article and testosterone samples were immediately combined with 400 μL of ice-cold 50/50 acetonitrile (ACN)/H2O containing 0.1% formic acid and internal standard to terminate the reaction. The samples were then mixed and centrifuged to precipitate proteins. […] The peak area response ratio (PARR) to internal standard was compared to the PARR at time 0 to determine the percent remaining at each time point. Half-lives and clearance were calculated using GraphPad software, fitting to a single-phase exponential decay equation.

Sequence of CAMK4 (Q16566 whole entry): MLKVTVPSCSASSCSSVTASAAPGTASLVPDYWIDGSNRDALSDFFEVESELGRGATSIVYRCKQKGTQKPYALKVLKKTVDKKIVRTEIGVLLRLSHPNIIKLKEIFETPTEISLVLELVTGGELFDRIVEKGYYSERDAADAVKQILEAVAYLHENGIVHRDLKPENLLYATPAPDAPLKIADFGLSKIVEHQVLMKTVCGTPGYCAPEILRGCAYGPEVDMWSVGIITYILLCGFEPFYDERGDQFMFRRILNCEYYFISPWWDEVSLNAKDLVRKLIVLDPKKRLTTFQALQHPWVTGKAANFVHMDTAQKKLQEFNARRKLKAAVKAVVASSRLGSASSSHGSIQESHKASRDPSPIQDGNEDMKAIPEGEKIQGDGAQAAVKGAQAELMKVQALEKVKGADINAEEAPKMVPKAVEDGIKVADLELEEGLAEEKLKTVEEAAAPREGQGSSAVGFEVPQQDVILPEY
Sequence of PAK1/CDC42 (Q13153 whole entry): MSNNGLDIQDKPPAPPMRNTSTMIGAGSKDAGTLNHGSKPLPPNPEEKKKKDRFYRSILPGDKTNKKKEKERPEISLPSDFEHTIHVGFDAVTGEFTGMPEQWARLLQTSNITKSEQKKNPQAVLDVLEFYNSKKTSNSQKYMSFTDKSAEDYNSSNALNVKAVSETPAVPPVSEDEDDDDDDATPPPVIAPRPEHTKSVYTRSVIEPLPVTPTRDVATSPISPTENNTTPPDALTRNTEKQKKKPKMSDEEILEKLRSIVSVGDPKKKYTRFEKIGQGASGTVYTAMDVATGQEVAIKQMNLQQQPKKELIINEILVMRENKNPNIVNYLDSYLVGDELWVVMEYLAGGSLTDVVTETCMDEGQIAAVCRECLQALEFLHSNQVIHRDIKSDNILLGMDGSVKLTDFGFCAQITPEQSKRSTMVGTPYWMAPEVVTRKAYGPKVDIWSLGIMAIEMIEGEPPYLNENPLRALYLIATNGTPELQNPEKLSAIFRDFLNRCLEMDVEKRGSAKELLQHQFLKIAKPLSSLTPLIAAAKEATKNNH
Sequence of IRAK4 (Q9NWZ3 whole entry): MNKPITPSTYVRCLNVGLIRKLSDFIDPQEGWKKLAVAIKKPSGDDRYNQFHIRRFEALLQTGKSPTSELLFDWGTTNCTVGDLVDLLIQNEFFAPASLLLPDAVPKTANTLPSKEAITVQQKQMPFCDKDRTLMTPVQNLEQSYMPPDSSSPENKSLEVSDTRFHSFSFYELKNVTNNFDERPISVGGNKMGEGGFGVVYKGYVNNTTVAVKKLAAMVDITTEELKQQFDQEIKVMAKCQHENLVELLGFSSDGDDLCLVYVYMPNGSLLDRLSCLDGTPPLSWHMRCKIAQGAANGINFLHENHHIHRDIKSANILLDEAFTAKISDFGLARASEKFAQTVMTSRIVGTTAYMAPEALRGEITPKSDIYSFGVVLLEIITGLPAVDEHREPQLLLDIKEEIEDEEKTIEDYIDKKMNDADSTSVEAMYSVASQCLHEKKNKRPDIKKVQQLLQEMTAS
Sequence of MAPKAPK2 (P49137 whole entry): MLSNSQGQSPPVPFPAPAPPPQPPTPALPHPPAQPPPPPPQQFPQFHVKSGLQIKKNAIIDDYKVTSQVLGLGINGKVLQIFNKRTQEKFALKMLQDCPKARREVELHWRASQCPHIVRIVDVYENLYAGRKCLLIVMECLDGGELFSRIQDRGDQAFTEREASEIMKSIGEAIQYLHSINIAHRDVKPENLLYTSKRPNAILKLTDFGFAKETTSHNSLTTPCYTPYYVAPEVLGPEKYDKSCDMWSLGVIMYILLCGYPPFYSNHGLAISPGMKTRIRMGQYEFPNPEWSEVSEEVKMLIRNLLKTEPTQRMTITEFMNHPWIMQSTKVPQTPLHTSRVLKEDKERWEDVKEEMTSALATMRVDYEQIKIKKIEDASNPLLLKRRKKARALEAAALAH
Sequence of DAPK1 (P53355 whole entry): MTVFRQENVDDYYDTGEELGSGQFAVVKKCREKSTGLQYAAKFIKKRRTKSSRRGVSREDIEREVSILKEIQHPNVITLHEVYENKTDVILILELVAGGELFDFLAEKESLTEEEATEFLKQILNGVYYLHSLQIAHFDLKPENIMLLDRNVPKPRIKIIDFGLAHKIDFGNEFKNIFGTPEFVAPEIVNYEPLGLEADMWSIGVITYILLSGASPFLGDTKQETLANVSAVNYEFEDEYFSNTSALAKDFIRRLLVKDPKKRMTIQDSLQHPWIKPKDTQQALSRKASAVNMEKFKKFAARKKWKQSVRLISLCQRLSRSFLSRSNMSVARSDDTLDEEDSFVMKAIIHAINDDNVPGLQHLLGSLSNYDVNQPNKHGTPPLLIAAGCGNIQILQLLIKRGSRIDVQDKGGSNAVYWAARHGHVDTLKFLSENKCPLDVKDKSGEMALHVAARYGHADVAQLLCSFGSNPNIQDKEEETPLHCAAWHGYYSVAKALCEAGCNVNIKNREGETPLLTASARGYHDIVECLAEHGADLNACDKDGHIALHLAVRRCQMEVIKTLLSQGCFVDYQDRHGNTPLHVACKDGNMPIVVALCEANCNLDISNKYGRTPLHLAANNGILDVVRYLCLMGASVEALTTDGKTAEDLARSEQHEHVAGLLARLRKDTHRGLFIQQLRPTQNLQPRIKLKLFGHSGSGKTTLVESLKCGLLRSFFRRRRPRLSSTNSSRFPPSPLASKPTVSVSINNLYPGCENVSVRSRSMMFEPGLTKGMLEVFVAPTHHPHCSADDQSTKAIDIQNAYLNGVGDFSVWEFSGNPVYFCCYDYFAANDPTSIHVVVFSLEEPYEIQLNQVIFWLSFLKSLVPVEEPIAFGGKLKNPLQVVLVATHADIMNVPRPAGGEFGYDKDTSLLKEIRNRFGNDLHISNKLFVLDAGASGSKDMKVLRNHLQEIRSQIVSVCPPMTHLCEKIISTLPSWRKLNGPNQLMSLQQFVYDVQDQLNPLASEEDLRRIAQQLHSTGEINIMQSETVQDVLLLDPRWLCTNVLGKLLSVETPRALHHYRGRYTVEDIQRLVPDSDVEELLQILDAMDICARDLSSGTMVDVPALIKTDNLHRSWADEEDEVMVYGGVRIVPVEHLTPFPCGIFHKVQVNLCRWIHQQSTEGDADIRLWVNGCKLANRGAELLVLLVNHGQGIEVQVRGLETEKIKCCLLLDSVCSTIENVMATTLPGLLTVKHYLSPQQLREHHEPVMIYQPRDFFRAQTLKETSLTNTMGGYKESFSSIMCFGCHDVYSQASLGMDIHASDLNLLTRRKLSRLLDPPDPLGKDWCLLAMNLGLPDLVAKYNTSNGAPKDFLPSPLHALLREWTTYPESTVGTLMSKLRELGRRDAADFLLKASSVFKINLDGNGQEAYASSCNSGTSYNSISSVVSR

**Q.** Which inhibition at 1 µM (CAMK4) does the source give for Cl.Cl.NCC(C(=O)Nc1ccc2cnccc2c1)c1ccc(B(O)O)cc1 (centres unmarked) [Compound 10•2HCl] here?
**A.** Its inhibition at 1 µM is 7%.

**Q.** And the inhibition at 1 µM (MAPKAPK2)?
**A.** The inhibition at 1 µM was 30%.

**Q.** And the inhibition at 1 µM (PKCa)?
**A.** Its inhibition at 1 µM is 72%.

**Q.** And the inhibition at 1 µM (DAPK1)?
**A.** Its inhibition at 1 µM is 20%.

**Q.** And the inhibition at 1 µM (PAK1/CDC42)?
**A.** Its inhibition at 1 µM is 0%.

**Q.** What about the inhibition at 1 µM (IRAK4) of the same compound?
**A.** The inhibition at 1 µM was 0%.

**Q.** What about the “Effect on viability (in words)” value (primary hTM cells) of the same compound?
**A.** Its value is “no effect on viability or membrane integrity”.

**Q.** What about the “% Remaining of Initial (n = 1)” value ([1]; 0 min) of the same compound?
**A.** The value was 100%.

**Q.** And the “% Remaining of Initial (n = 1)” value ([1]; 10 min)?
**A.** Its value is 98.0%.

**Q.** What about the “% Remaining of Initial (n = 1)” value ([1]; 20 min) of the same compound?
**A.** The value was 91.5%.

**Q.** What about the “% Remaining of Initial (n = 1)” value ([1]; 30 min) of the same compound?
**A.** The value was 89.6%.

**Q.** And the “% Remaining of Initial (n = 1)” value ([1]; 60 min)?
**A.** Its value is 80.8%.

**Q.** What about the half-life at 1 μM ([1]; both sexes, pH 7.4) of the same compound?
**A.** Its half-life at 1 μM is greater than 1 h.

**Q.** And the microsomal CLint at 1 μM ([1]; both sexes, pH 7.4)?
**A.** The microsomal CLint at 1 μM was less than 23.1 µL/min/mg.
